Activity calls are given as the source filed them. For most assays here, no stated cut-off is given here; in the data, actives have a measured Kd and inactives only a lower limit.
How the values were obtained:
[1] = target: Serine/threonine-protein kinase SIK2 (Homo sapiens, UniProt Q9H0K1)
[2] = target: T1, Inhibitor of nuclear factor kappa-B kinase subunit epsilon (Homo sapiens, UniProt Q14164)
T1 sequence (Q14164 whole entry): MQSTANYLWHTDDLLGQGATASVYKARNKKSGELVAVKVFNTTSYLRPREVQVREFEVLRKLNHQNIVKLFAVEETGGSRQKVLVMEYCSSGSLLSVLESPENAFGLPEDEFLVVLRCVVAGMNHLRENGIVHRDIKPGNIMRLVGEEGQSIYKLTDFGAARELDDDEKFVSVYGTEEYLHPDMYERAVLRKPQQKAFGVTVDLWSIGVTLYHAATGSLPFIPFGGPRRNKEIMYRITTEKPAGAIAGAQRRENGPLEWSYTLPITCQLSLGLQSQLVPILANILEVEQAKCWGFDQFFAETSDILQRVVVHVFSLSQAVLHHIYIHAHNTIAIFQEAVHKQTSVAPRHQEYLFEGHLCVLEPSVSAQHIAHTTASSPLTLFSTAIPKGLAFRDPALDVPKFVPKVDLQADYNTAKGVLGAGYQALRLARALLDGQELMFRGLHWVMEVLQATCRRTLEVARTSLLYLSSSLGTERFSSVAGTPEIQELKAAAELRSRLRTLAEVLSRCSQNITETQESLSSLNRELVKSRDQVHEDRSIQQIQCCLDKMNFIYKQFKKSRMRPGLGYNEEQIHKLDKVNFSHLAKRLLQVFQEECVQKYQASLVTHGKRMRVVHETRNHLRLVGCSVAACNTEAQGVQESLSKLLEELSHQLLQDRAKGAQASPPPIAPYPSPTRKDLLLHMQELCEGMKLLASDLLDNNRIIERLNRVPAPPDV

[3] = target: T2, Uncharacterized protein FLJ45252 (Homo sapiens, UniProt Q6ZSR9); settings: read-out: Kd apparent; k-562, colo 205, sk-n-be(2) and mv-4-11
T2 sequence (Q6ZSR9 whole entry): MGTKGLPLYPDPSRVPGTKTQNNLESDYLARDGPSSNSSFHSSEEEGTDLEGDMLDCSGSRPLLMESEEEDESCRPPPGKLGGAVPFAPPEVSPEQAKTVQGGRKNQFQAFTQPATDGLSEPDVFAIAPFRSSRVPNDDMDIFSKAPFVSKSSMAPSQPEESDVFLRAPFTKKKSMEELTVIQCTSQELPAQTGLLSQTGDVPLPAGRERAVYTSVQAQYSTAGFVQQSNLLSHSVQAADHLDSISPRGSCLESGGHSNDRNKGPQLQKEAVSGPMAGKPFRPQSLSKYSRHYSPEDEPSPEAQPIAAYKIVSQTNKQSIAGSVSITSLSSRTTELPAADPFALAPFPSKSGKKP

[4] = target: T3, Serine/threonine-protein kinase NLK (Homo sapiens, UniProt Q9UBE8)
T3 sequence (Q9UBE8 whole entry): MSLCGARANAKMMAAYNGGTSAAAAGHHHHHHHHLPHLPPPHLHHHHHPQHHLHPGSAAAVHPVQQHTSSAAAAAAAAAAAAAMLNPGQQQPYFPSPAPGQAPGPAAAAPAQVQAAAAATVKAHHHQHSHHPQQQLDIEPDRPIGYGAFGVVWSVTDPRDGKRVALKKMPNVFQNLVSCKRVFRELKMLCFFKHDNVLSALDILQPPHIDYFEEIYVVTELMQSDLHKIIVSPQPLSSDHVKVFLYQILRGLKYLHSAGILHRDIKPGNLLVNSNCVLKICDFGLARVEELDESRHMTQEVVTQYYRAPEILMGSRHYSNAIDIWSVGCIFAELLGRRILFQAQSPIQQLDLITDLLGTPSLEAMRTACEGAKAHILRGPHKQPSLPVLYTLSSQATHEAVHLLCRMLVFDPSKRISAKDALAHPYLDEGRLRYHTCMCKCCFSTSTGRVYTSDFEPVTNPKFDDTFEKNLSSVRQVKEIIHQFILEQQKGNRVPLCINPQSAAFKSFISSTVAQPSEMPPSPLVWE

[5] = target: Protein kinase C delta type (Homo sapiens, UniProt Q05655)
Glycine--tRNA ligase = target: T4, Glycine--tRNA ligase (Homo sapiens, UniProt P41250)
T4 sequence (P41250 whole entry): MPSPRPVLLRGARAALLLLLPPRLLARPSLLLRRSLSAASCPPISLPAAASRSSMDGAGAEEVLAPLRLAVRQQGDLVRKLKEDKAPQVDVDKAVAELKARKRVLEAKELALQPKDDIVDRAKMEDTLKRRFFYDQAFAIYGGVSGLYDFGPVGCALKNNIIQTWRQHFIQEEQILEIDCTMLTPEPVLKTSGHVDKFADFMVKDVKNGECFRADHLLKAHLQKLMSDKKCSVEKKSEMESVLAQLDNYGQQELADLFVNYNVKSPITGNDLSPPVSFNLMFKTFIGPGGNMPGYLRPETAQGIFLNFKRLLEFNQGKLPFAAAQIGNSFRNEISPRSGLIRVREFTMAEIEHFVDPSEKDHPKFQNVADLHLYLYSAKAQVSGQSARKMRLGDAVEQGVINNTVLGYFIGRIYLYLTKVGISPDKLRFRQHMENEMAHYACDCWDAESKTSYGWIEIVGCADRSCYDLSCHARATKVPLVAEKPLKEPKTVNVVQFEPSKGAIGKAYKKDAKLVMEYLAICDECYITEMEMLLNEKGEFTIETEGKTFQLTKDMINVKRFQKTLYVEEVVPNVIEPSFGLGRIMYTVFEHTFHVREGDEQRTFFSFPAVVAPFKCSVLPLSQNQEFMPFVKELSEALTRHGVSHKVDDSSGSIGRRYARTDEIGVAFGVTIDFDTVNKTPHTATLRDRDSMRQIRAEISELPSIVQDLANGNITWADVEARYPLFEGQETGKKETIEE

[6] = target: Tyrosine-protein kinase JAK1 (Homo sapiens, UniProt P23458)
[7] = target: T5, Dual specificity mitogen-activated protein kinase kinase 6 (Homo sapiens, UniProt P52564)
T5 sequence (P52564 whole entry): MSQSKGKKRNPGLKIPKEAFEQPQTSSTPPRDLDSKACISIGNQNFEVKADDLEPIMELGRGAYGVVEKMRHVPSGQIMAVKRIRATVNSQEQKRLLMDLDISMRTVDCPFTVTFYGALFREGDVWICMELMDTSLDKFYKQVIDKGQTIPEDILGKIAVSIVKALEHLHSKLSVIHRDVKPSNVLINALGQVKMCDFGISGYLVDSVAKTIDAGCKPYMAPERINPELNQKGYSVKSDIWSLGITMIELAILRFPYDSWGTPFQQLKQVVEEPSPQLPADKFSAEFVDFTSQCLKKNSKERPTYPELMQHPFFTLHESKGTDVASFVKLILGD

[8] = target: Cyclin-dependent kinase 5 (Homo sapiens, UniProt Q00535)
Chain of Cyclin-dependent kinase 5 (Q00535 whole entry): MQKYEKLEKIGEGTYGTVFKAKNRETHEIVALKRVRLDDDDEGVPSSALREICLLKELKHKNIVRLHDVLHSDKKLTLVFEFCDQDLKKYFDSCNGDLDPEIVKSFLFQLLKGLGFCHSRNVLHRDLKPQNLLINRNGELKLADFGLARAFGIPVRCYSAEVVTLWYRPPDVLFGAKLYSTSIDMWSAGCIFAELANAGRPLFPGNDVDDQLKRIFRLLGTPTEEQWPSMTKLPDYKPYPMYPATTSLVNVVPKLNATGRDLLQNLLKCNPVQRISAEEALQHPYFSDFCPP

Chain of Tyrosine-protein kinase JAK1 (P23458 whole entry): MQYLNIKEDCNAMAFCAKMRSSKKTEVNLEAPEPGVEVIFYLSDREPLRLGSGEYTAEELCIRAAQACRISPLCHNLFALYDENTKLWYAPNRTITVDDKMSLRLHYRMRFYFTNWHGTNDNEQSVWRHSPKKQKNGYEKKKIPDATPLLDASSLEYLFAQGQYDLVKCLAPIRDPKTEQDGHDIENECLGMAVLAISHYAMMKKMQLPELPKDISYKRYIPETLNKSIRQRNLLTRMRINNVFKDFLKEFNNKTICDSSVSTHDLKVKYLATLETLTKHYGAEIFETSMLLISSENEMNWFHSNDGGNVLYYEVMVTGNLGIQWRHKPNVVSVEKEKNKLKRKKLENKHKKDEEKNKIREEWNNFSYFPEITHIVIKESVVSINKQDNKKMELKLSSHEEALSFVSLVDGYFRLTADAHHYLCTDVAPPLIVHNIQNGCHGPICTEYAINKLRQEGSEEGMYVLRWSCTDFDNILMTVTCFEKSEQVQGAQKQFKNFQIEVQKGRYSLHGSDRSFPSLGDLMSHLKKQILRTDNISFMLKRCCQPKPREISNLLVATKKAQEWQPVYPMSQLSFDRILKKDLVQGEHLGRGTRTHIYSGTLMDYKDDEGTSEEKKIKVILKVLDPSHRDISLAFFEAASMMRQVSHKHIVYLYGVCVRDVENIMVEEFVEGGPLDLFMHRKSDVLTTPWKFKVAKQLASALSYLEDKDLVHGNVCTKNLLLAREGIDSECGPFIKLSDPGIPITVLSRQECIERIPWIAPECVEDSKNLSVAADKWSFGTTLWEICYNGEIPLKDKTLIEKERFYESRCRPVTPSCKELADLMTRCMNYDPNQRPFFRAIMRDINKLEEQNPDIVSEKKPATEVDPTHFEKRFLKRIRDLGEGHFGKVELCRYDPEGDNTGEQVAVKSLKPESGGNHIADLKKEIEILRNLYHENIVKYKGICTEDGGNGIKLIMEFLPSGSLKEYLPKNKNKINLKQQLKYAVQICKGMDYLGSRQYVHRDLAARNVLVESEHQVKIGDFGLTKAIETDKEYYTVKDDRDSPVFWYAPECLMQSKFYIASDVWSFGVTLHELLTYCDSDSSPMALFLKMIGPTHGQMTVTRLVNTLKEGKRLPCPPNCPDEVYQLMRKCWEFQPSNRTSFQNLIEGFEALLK
Chain of Serine/threonine-protein kinase SIK2 (Q9H0K1 whole entry): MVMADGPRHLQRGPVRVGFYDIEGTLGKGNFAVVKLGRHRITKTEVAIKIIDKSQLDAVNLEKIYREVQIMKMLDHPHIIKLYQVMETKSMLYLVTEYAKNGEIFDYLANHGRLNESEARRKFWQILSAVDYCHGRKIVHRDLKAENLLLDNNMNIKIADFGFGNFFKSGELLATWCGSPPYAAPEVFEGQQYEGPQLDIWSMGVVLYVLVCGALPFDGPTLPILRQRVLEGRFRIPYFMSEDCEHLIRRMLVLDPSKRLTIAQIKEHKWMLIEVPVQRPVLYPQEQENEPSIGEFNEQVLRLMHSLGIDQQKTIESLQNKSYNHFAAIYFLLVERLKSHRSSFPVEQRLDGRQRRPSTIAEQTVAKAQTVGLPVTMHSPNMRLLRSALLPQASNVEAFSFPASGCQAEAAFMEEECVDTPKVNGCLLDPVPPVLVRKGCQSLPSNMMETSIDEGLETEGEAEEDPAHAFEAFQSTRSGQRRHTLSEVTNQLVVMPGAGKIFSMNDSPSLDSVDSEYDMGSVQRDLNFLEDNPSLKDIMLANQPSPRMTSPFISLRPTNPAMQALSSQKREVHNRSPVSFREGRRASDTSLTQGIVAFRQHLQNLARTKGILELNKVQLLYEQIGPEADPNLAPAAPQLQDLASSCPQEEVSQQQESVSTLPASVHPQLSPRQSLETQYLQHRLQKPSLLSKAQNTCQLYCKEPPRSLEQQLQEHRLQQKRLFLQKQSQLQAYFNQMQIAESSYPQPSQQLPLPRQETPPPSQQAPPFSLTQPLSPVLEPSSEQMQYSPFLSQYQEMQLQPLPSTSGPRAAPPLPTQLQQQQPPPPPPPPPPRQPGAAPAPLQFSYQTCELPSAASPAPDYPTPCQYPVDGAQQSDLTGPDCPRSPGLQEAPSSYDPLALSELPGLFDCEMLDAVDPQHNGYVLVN
Chain of Protein kinase C delta type (Q05655 whole entry): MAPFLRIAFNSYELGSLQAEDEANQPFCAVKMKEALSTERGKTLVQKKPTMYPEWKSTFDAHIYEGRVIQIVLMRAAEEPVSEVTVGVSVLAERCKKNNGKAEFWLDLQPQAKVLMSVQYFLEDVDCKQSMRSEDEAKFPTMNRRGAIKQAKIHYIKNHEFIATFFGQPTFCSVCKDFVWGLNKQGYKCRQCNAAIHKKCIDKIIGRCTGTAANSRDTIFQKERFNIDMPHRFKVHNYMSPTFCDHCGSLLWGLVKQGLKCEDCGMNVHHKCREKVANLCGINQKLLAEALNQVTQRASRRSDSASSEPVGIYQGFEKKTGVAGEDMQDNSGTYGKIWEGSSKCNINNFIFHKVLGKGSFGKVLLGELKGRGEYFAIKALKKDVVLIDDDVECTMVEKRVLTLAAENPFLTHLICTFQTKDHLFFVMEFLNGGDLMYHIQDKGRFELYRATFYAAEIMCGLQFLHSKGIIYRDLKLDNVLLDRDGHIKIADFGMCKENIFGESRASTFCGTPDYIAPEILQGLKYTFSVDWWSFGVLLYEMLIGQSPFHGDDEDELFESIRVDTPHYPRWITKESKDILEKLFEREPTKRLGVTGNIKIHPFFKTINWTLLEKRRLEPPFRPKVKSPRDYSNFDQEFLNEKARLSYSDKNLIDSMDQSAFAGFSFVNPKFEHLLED

SMILES	Kd [1]	Kd [2]	Kd [3]	Kd [4]	Kd [5]	Kd (Glycine--tRNA ligase)	Kd [6]	Kd [7]	Kd [8]
CN1CCN(c2nc(C3=C(c4c[nH]c5ccccc45)C(=O)NC3=O)c3ccccc3n2)CC1 [SOTRASTAURIN]	> 30 µM (inactive)	> 30 µM (inactive)	> 30 µM (inactive)	> 30 µM (inactive)	0.005 µM (active)	> 30 µM (inactive)	> 30 µM (inactive)	> 30 µM (inactive)	> 30 µM (inactive)
COc1cc(F)c(F)c(Nc2ccc(I)cc2F)c1NS(=O)(=O)C1(C[C@H](O)CO)CC1 [REFAMETINIB]	> 30 µM (inactive)	> 30 µM (inactive)	> 30 µM (inactive)	> 30 µM (inactive)	> 30 µM (inactive)	> 30 µM (inactive)	> 30 µM (inactive)	> 30 µM (inactive)	> 30 µM (inactive)
CNC(=O)c1ccc(Nc2ncc(C(F)(F)F)c(NCc3nccnc3N(C)S(C)(=O)=O)n2)cc1 [DEFACTINIB]	> 30 µM (inactive)	> 30 µM (inactive)	> 30 µM (inactive)	> 30 µM (inactive)	> 30 µM (inactive)	> 30 µM (inactive)	> 30 µM (inactive)	> 30 µM (inactive)	1.41 µM (active)
Cc1ccc(C(=O)Nc2ccc(Oc3cc4cnn(C)c4cc3-c3cn[nH]c3)c(F)c2)c(=O)n1-c1ccc(F)cc1 [MERESTINIB]	> 30 µM (inactive)	> 30 µM (inactive)	> 30 µM (inactive)	> 30 µM (inactive)	> 30 µM (inactive)	> 30 µM (inactive)	> 30 µM (inactive)	> 30 µM (inactive)	> 30 µM (inactive)
O=c1[nH]c([C@@H]2CCCN2)nc2c1oc1ccc(Cl)cc12	> 30 µM (inactive)	> 30 µM (inactive)	> 30 µM (inactive)	> 30 µM (inactive)	> 30 µM (inactive)	> 30 µM (inactive)	> 30 µM (inactive)	> 30 µM (inactive)	> 30 µM (inactive)
Cc1c(Cn2c(C)nc3c(C(=O)O)cc(N4CCOCC4)cc32)cccc1C(F)(F)F [GSK-2636771]	> 30 µM (inactive)	> 30 µM (inactive)	> 30 µM (inactive)	> 30 µM (inactive)	> 30 µM (inactive)	> 30 µM (inactive)	> 30 µM (inactive)	> 30 µM (inactive)	> 30 µM (inactive)

The remaining lines, values ahead:

Kd [1]	Kd [2]	Kd [3]	Kd [4]	Kd [5]	Kd (Glycine--tRNA ligase)	Kd [6]	Kd [7]	Kd [8]	SMILES
> 30 µM (inactive)	> 30 µM (inactive)	> 30 µM (inactive)	> 30 µM (inactive)	> 30 µM (inactive)	> 30 µM (inactive)	> 30 µM (inactive)	> 30 µM (inactive)	> 30 µM (inactive)	CNC(=O)c1cc(COc2nnc(Nc3ccc(Cl)cc3)c3ccoc23)ccn1 [TELATINIB]
> 30 µM (inactive)	> 30 µM (inactive)	> 30 µM (inactive)	3.33 µM	> 30 µM (inactive)	> 30 µM (inactive)	> 30 µM (inactive)	> 30 µM (inactive)	> 30 µM (inactive)	COc1cccc2cc(-c3nc([C@H]4CC[C@H](C(=O)O)CC4)n4ncnc(N)c34)[nH]c12 [OSI-027]
> 30 µM (inactive)	> 30 µM (inactive)	> 30 µM (inactive)	0.816 µM	> 30 µM (inactive)	> 30 µM (inactive)	> 30 µM (inactive)	> 30 µM (inactive)	> 30 µM (inactive)	CC(C)(O)CC(=O)NCCn1ccc2ncnc(Nc3ccc(Oc4cccc(C(F)(F)F)c4)c(Cl)c3)c21 [TAK-285]
> 30 µM (inactive)	> 30 µM (inactive)	> 30 µM (inactive)	> 30 µM (inactive)	> 30 µM (inactive)	> 30 µM (inactive)	> 30 µM (inactive)	> 30 µM (inactive)	> 30 µM (inactive)	CNC(=O)c1cccc(-c2ccc3c(N4CCOC[C@@H]4C)nc(N4CCOC[C@@H]4C)nc3n2)c1 [VISTUSERTIB]
> 30 µM (inactive)	> 30 µM (inactive)	2.53 µM (active)	> 30 µM (inactive)	> 30 µM (inactive)	> 30 µM (inactive)	> 30 µM (inactive)	> 30 µM (inactive)	> 30 µM (inactive)	c1cc(OCCN2CCCCC2)cc(-c2n[nH]c3ccc(-c4nc[nH]n4)cc23)c1 [CC-401]
> 30 µM (inactive)	1.32 µM (active)	> 30 µM (inactive)	> 30 µM (inactive)	> 30 µM (inactive)	> 30 µM (inactive)	> 30 µM (inactive)	> 30 µM (inactive)	> 30 µM (inactive)	COc1cc(Nc2ncc(F)c(Nc3ccc4c(n3)N(COP(=O)(O)O)C(=O)C(C)(C)O4)n2)cc(OC)c1OC [FOSTAMATINIB]
> 30 µM (inactive)	> 30 µM (inactive)	> 30 µM (inactive)	> 30 µM (inactive)	> 30 µM (inactive)	> 30 µM (inactive)	> 30 µM (inactive)	> 30 µM (inactive)	> 30 µM (inactive)	COc1ccc2c(OCc3nnc4ccc(-c5ccccc5)nn34)ccnc2c1 [AMG-208]
> 30 µM (inactive)	> 30 µM (inactive)	2.64 µM (active)	> 30 µM (inactive)	0.067 µM (active)	> 30 µM (inactive)	> 30 µM (inactive)	> 30 µM (inactive)	> 30 µM (inactive)	CC[C@@](C)(Nc1ccnc(-c2c[nH]c3ncccc23)n1)C(=O)NCC(F)(F)F [DECERNOTINIB]
